This test has as its target T1, BrabA.11339.a (Brucella abortus, UniProt Q2YQ74).
T1 construct: gene BAB1_1016
The following applies: Mn2+ dinuclear active site at dimer interface.

This is an account of results in publication PMC3169410 (Acta Crystallographica Section F: Structural Biology and …, 2011).

Read-outs that look alike come from different tables or passages of the source.

T1 sequence (Q2YQ74 2-272 limits assumed): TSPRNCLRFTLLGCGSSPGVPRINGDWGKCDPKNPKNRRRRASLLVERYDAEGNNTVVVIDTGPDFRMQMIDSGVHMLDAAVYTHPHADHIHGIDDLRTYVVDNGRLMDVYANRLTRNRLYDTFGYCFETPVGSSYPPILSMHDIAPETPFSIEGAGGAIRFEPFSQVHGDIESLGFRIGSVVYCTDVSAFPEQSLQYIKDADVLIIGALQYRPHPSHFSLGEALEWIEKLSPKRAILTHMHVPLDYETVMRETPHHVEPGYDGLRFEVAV

Consider `Nc1ncnc2c1ncn2[C@@H]1O[C@H](COP(=O)(O)O)[C@@H](O)[C@H]1O` [AMP], for which the X-ray crystallography entry (AMP found in cocrystals grown with 1 mM AMPPNP and 2 mM MgCl2 (1.7 A and 1.6 A)) is “very solid electron density could be observed for GMP and AMP, respectively”. Take `Nc1nc2c(ncn2[C@@H]2O[C@H](COP(=O)(O)O)[C@@H](O)[C@H]2O)c(=O)[nH]1` [GMP]: the X-ray crystallography result (GMP copurified from E. coli, partially occupied (3md7, 1.27 A), full density in cocrystal with 1 mM GMPPNP and 2 mM MgCl2 (3py6, 1.7 A)) was “In the native structure, a partially occupied GMP molecule can be observed in the immediate proximity”.
